{
  "source": "patent US11643421B2",
  "about": "“Process for the preparation of tricyclic PI3K inhibitor compounds and methods for using the same for the treatment of cancer” (priority 2015, dated 2023)",
  "key": {"[1]": {"system": "U87 MG Merchant (MG/M) human glioblastoma xenografts", "description": "All in vivo studies were conducted in compliance with Genentech's Institutional Animal Care and Use Committee. […] Cells in log-phase growth were harvested and resuspended in HBSS:Matrigel (BD Biosciences; Franklin Lakes, N.J.) (1:1, v:v) for injection into female NCr nude mice (Taconic Farms, Cambridge City, Ind.) aged 20 weeks. Animals received five million cells subcutaneously in the right lateral thorax in 0.1 mL. […] The inhibitor was formulated once weekly in 0.5% methylcellulose and 0.2% Tween-80 at concentrations needed for target doses in a volume of 0.2 mL. All formulations were stored in a refrigerator and brought to room temperature and mixed well by vortex before oral administration by gavage once daily for 23 days. Tumor volumes were calculated from perpendicular length and width caliper measurements using the formula: Tumor Volume (mm^3)=0.5×(Length×Width^2). Changes in body weights are reported as a percentage change from the starting weight.\nLog 2(tumor volume) growth traces were fitted to each dose group with restricted cubic splines for the dose and fixed time effects. […] Fitted tumor volumes were plotted in the natural scale in Prism (version 5.0b for Mac) (GraphPad Software; La Jolla, Calif.). Linear mixed-effects analysis was also employed using R to analyze the repeated measurement of body weight changes from the same animals over time.\nThe mice control group was administered the vehicle in the absence of the drug once at the same dosage schedule. Changes in tumor volumes over time by dose for each compound are depicted in FIG. 3 as cubic spline fits generated via Linear Mixed Effects analysis of log-transformed volumes."}, "[2]": {"assay": "Hepatocyte stability, predicted hepatic clearance", "assay_type": "in vitro ADME", "conditions": "in vitro t1/2 method", "description": "(§1) The hepatocyte stability of compound IIIat was evaluated across preclinical species. Certain in vivo pharmacokinetic parameters were also evaluated. […] Male Sprague-Dawley rats, female CD-1 mice, male cynomolgus monkeys and beagle dogs were dosed intravenously with 1 mg/kg of compound IIIat prepared in 60% PEG400/10% Ethanol. Compound IIIat was administered orally (PO) at the indicated dose in 0.5% methylcellulose with 0.2% Tween 80 (MCT)."}, "[3]": {"assay": "Hepatocyte stability, predicted hepatic clearance", "assay_type": "in vitro ADME, cynomolgus monkeys", "conditions": "Cyno hepatocytes, in vitro t1/2 method", "description": "as §1"}, "[4]": {"assay": "MALDI imaging of brain distribution, GS2 orthotopic model", "assay_type": "in vivo, female nude mice", "conditions": "15 mg/kg PO, 1 hour post dose", "description": "Mice were euthanized at 1 and 6 hours post-dose via exsanguination by perfusion under anesthesia. Brains were excised, flash frozen in liquid N2 and stored in a −80° C. freezer until analyzed. Fresh frozen tissue sections were obtained on a cryomicrotome (Leica CM3050S, Buffalo Grove, Ill.) at 12 μm thickness and thaw-mounted onto indium tin oxide coated glass slides (Bruker Daltonics, Billerica, Mass.). Tissue sections were an analyzed by imaging MALDI MS, providing signal intensities (and not absolute quantitation), followed by cresyl violet staining for histological interrogation.\nFor MALDI MAS analysis, a 40 mg/mL solution of 2,5-dihydroxybenzoic acid (Sigma-Aldrich, St. Louis, Mo.) was prepared in methanol:water (70:30 v/v). […] Matrix solution was homogenously spray-coated onto the tissue using a HTX TM-Sprayer (HTX technologies. Chapel Hill, N.C.). Matrix-coated tissue sections were transferred to the MALDI mass spectrometer (SolariX 7T FT-ICR, Bruker Daltonics, Bremen, Germany) for imaging analysis. […] Laser intensity and number of shots were optimized for sensitivity of the parent drug (1200 shots) with ion detection collected over the mass range of m/z 150-3000.\nFollowing completion of the imaging experiments, matrix coaling was removed by rinsing the glass slide in 100% methanol for 30 seconds or until the entire matrix was visibly removed. […]"}, "[5]": {"assay": "Plasma and brain concentrations in GS2 tumor-bearing mice", "assay_type": "in vivo", "conditions": "mouse, 15 mg/kg PO; for concentration at 2 h: 2 h post-dose; for concentration at 8 h: 8 h post-dose"}, "[6]": {"system": "pS6", "assay": "PI3K pathway modulation in GS2 tumors, western blot", "assay_type": "in vivo, mice", "conditions": "15 mg/kg PO daily 4 weeks"}, "[7]": {"target": "AKT1 (Homo sapiens, UniProt P31749)", "sequence (P31749 whole entry, species assumed)": "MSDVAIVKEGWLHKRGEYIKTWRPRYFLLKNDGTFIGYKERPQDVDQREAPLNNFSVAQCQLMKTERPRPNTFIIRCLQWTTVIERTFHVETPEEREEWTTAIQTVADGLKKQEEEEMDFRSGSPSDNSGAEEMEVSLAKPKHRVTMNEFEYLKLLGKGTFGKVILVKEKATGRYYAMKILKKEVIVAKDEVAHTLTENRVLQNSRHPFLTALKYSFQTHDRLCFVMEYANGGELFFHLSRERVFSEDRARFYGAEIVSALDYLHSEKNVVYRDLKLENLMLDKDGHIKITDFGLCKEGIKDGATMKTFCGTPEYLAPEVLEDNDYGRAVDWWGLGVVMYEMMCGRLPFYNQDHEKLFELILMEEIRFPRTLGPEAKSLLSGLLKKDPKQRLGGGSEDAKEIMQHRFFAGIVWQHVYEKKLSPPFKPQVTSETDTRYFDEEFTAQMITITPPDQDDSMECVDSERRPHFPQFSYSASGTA", "assay": "biochemical", "conditions": "read-out: % inhib"}, "[8]": {"target": "EphB3 (Homo sapiens, UniProt P54753)", "sequence (P54753 34-998)": "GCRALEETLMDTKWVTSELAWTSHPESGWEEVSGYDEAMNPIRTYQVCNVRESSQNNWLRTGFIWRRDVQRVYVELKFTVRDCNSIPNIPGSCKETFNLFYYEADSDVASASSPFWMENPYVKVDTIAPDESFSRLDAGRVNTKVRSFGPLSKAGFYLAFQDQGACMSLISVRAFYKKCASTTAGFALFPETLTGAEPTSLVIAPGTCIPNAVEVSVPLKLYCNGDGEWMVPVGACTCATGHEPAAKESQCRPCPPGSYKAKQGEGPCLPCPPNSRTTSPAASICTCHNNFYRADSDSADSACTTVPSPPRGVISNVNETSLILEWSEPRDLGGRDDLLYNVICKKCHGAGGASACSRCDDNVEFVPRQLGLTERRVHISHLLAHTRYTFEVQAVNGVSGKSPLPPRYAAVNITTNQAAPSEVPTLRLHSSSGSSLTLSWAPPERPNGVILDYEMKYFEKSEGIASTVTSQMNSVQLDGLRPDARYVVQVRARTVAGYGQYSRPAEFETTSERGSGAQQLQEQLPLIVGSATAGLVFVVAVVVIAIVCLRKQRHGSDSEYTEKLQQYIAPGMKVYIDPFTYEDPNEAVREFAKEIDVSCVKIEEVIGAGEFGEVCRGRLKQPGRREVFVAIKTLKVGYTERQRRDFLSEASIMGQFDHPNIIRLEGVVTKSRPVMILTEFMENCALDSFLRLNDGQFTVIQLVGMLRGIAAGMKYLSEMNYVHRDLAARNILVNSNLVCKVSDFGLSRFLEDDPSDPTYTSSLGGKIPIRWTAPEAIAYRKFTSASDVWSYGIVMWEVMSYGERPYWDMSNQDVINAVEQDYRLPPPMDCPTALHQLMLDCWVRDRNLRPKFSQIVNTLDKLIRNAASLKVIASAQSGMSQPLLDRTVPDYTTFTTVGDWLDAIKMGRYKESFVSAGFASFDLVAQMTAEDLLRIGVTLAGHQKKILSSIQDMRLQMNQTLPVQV", "assay": "biochemical", "conditions": "read-out: % inhib"}, "[9]": {"target": "GSK3_beta (Homo sapiens, UniProt P49841)", "sequence (P49841 whole entry, species assumed)": "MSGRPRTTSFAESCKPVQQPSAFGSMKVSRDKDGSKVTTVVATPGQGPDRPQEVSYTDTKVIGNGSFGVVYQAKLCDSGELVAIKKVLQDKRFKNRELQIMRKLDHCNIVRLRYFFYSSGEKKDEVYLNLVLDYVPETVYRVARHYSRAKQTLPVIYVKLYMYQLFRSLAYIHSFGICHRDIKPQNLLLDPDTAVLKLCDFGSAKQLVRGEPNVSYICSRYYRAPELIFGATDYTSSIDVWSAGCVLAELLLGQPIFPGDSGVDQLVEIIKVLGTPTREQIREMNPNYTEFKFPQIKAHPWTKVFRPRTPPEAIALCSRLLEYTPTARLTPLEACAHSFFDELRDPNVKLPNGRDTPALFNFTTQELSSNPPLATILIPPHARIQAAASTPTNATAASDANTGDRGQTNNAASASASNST", "assay": "biochemical", "conditions": "read-out: % inhib"}, "[10]": {"target": "MSK2 (Homo sapiens, UniProt O75676)", "sequence (O75676 whole entry, species assumed)": "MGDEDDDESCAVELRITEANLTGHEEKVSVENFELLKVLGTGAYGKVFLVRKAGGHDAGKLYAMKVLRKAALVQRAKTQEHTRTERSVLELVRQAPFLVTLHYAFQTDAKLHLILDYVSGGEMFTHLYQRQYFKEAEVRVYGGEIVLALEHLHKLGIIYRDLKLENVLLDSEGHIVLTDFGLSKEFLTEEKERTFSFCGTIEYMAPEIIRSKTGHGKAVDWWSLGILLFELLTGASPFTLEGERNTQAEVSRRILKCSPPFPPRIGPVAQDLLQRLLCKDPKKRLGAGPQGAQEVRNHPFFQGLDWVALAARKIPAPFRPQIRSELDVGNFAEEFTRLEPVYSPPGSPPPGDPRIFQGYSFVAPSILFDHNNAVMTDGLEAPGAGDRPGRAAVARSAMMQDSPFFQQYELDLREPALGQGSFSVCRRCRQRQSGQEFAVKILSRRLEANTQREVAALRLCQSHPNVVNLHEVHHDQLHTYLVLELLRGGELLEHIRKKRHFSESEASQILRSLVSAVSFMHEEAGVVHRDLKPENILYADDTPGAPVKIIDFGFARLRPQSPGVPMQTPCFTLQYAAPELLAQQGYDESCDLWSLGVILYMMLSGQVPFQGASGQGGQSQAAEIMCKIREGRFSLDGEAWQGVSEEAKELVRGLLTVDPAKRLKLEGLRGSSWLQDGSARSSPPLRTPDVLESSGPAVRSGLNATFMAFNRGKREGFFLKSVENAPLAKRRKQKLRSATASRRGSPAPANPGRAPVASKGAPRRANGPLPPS", "assay": "biochemical", "conditions": "read-out: % inhib"}, "[11]": {"target": "MST1 (Homo sapiens, UniProt Q13043)", "sequence (Q13043 whole entry)": "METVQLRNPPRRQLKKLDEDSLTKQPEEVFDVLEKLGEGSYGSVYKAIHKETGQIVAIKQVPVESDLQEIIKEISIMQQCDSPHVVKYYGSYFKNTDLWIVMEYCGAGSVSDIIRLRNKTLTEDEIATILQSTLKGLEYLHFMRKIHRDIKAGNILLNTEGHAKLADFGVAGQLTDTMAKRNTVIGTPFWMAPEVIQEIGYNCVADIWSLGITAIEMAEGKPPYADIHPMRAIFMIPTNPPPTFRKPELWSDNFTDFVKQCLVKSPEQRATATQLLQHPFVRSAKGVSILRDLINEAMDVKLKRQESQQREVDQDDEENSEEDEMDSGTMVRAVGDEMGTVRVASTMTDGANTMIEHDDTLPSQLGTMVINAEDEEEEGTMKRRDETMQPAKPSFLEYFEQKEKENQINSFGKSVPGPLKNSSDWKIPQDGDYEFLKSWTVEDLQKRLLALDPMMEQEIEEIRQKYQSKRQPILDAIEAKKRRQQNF", "assay": "biochemical", "conditions": "read-out: % inhib"}, "[12]": {"target": "PAK2 (Homo sapiens, UniProt Q13177)", "sequence (Q13177 whole entry)": "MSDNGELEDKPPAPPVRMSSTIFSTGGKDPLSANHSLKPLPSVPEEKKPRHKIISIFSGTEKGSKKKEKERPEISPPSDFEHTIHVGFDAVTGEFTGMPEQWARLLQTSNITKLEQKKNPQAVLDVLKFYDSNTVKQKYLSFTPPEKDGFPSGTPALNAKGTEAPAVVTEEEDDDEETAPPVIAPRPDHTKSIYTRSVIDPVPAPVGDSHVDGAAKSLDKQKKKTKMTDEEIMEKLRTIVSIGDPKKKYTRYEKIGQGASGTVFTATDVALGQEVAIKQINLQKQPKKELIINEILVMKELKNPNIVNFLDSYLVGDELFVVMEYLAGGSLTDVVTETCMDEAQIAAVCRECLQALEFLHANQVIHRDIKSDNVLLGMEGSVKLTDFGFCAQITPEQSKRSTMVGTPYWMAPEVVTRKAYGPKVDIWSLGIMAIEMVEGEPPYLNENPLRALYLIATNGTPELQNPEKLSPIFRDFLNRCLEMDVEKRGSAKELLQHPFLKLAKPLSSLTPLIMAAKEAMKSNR", "assay": "biochemical", "conditions": "read-out: % inhib"}, "[13]": {"target": "ZAP-70 (Homo sapiens, UniProt P43403)", "sequence (P43403 whole entry, species assumed)": "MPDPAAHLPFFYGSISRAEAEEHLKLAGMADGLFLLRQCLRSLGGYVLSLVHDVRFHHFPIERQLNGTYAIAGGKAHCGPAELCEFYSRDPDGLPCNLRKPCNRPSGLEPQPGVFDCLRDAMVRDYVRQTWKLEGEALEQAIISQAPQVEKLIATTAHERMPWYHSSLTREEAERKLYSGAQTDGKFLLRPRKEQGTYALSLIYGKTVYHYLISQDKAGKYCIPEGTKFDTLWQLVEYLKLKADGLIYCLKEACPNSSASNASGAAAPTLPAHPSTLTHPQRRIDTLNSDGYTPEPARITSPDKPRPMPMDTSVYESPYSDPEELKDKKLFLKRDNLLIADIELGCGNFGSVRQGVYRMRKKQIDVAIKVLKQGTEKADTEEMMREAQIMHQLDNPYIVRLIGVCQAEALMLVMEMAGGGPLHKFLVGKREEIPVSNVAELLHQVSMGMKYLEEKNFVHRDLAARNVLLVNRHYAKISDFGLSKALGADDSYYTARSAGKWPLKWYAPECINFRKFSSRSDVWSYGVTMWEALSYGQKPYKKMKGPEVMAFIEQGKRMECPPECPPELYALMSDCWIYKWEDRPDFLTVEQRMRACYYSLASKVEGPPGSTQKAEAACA", "assay": "biochemical", "conditions": "read-out: % inhib"}, "[14]": {"system": "pAKT", "assay": "PI3K pathway modulation in GS2 tumors, western blot", "conditions": "15 mg/kg PO daily 4 weeks", "protocol": "Each brain was dissected to separate the tumor from the healthy tissues. […] The GS2 tumors isolated from the brains were processed and the PI3K pathway markers pAkt, pS6 and p4EBP1 were measured as described previously."}, "[15]": {"conditions": "non-tumored half of the brain, read-out: Brain"}, "[16]": {"conditions": "2 hours after final administration"}},
  "note": "Read-outs that look alike come from different tables or passages of the source.",
  "data": [
    {"smiles": "CC1(C)OCCn2c1nc1c(N3CCOCC3)nc(-c3cnc(N)nc3)nc12", "note": "[GDC-0084, 5-(6,6-dimethyl-4-morpholino-8,9-dihydro-6H-[1,4]oxazino[3,4-e]purin-2-yl)pyrimidin-2-amine]", "values": [
      {"measurement": "tumor response at highest dose", "setting": "[1]; 17.9 mg/kg dose level", "result": "tumor regressions"},
      {"measurement": "tumor growth inhibition", "setting": "[1]; 0.45-17.9 mg/kg oral, 23 days", "result": "significant and dose-dependent tumor growth inhibition"},
      {"measurement": "tolerability", "setting": "[1]; mouse, in vivo", "result": "well tolerated"},
      {"measurement": "dose level at which tumor growth inhibition was first observed", "setting": "[1]; oral dose escalation", "result": 2.2, "unit": "mg/kg"},
      {"measurement": "Clhep", "setting": "[2]; Dog hepatocytes", "result": 13, "unit": "mL/min/kg"},
      {"measurement": "Clhep", "setting": "[2]; Mouse hepatocytes", "result": 30, "unit": "mL/min/kg"},
      {"measurement": "Clhep", "setting": "[2]; Rat hepatocytes", "result": 3, "unit": "mL/min/kg"},
      {"measurement": "Clhep", "setting": "[3]", "result": 26, "unit": "mL/min/kg"},
      {"measurement": "mean pixel intensity (MALDI imaging)", "setting": "[4]; GS2 tumors", "result": 0.34},
      {"measurement": "mean pixel intensity (MALDI imaging)", "setting": "[4]; normal brain of GS2 tumor-bearing mice", "result": 0.55},
      {"measurement": "concentration at 2 h", "setting": "[5]; plasma, read-out: Plasma", "result": "3.64 ± 2.05", "unit": "µM"},
      {"measurement": "concentration at 8 h", "setting": "[5]; plasma, read-out: Plasma", "result": "2.01 ± 1.19", "unit": "µM"},
      {"measurement": "concentration at 2 h", "setting": "[5]; [15]", "result": "5.51 ± 1.58", "unit": "µM"},
      {"measurement": "concentration at 8 h", "setting": "[5]; [15]", "result": "2.48 ± 1.25", "unit": "µM"},
      {"measurement": "Suppression of pS6 in GS2 tumors", "setting": "[6]; [16]", "result": 35, "unit": "%"},
      {"measurement": "pS6 level in GS2 tumors", "setting": "[6]; 8 hours post-dose", "result": "back to baseline levels"},
      {"measurement": "inhibition at 1 µM", "setting": "[7]", "result": 0.7, "unit": "%"},
      {"measurement": "inhibition at 1 µM", "setting": "[8]", "result": -0.1, "unit": "%"},
      {"measurement": "inhibition at 1 µM", "setting": "[9]", "result": 1, "unit": "%"},
      {"measurement": "inhibition at 1 µM", "setting": "[10]", "result": 0.6, "unit": "%"},
      {"measurement": "inhibition at 1 µM", "setting": "[11]", "result": 5, "unit": "%"},
      {"measurement": "inhibition at 1 µM", "setting": "[12]", "result": 3, "unit": "%"},
      {"measurement": "inhibition at 1 µM", "setting": "[13]", "result": -0.9, "unit": "%"},
      {"measurement": "reduction of pAkt levels in GS2 tumors", "setting": "[14]; [16]", "result": 90, "unit": "%"},
      {"measurement": "reduction of pAkt levels in GS2 tumors", "setting": "[14]; 8 hours after final administration", "result": 70, "unit": "%"}
    ]}
  ]
}
